Test results reported in patent publication US11285127B2, “Compositions and methods for lowering triglycerides without raising LDL-C levels in a subject on concomitant statin therapy” (Amarin Pharmaceuticals Ireland Limited, priority 2013, dated 2022).

Tested on: patients with fasting triglyceride levels >200 mg/dl and <500 mg/dl despite statin therapy
Experiment: 12-week study: lipoprotein particle concentration (VLDL, LDL, HDL; nuclear magnetic resonance)
Assay type: in vivo, human
Text: Parameters (a)-(z) can be measured in accordance with any clinically acceptable methodology. For example, triglycerides, total cholesterol, HDL-C and fasting blood sugar can be sample from serum and analyzed using standard photometry techniques. VLDL-TG, LDL-C and VLDL-C can be calculated or determined using serum lipoprotein fractionation by preparative ultracentrifugation and subsequent quantitative analysis by refractometry or by analytic ultracentrifugal methodology. Apo A1, Apo B and hsCRP can be determined from serum using standard nephelometry techniques. Lipoprotein (a) can be determined from serum using standard turbidimetric immunoassay techniques. LDL particle number and particle size can be determined using nuclear magnetic resonance (NMR) spectrometry. Remnants lipoproteins and LDL-phospholipase A2 can be determined from EDTA plasma or serum and serum, respectively, using enzymatic immunoseparation techniques. Oxidized LDL, intercellular adhesion molecule-1 and interleukin-2 levels can be determined from serum using standard enzyme immunoassay techniques. These techniques are described in detail in standard textbooks, for example Tietz Fundamentals of Clinical Chemistry, 6th Ed. (Burtis, Ashwood and Borter Eds.), WB Saunders Company.
A multi-center, placebo-controlled, randomized, double-blind, 12-week study was performed to evaluate the efficacy and safety of >96% E-EPA in patients with fasting triglyceride levels >200 mg/dl and <500 mg/dl despite statin therapy (the mean of two qualifying entry values needed to be >185 mg/dl and at least one of the values needed to be >200 mg/dl). The primary objective of the study was to determine the efficacy of >96% E-EPA 2 g daily and 4 g daily, compared to placebo, in lowering fasting TG levels in patients with high risk for cardiovascular disease and with fasting TG levels 200 mg/dl and <500 mg/dl, despite treatment to LDL-C goal on statin therapy.
The secondary objectives of this study were the following: • 1. To determine the safety and tolerability of >96% E-EPA 2 g daily and 4 g daily; • 2. To determine the effect of >96% E-EPA on lipid and apolipoprotein profiles including total cholesterol (TC), non-high-density lipoprotein cholesterol (non-HDL-C), low density lipoprotein cholesterol (LDL-C), high density lipoprotein cholesterol (HDL-C), and […]; • 3. To determine the effect of >96% E-EPA on lipoprotein associated phospholipase A2 (Lp-PLA2) from baseline to week 12; • 4. To determine the effect of >96% E-EPA on low-density lipoprotein (LDL) particle number and size; • 5. To determine the effect of >96% E-EPA on oxidized LDL; • 6. To determine the effect of >96% E-EPA on fasting plasma glucose (FPG) and hemoglobin A1c (HbA1c); • 7. To determine the effect of >96% E-EPA on insulin resistance; • 8. To determine the effect of >96% E-EPA on high-sensitivity C-reactive protein (hsCRP); • 9. To determine the effects of >96% E-EPA 2 g daily and 4 g daily on the incorporation of fatty acids into red blood cell membranes and into plasma phospholipids; • 10. To explore the relationship between baseline fasting TG levels and the reduction in fasting TG levels; and • 11. To explore the relationship between changes of fatty acid concentrations in plasma and red blood cell membranes, and the reduction in fasting TG levels.
The primary efficacy variable for the double-blind treatment period was percent change in TG from baseline to Week 12 endpoint. […]

[1] = IPE 4 g/day (n = 216), 12 weeks
[2] = IPE 4 g/day (n = 216); 12 weeks
[3] = IPE 4 g/day (n = 216); 12 weeks; IDL (23-29 nm)
[4] = IPE 4 g/day (n = 216); 12 weeks; large HDL (9.4-14.0 nm)
[5] = IPE 4 g/day (n = 216); 12 weeks; large LDL (20.5-23.0 nm)
[6] = IPE 4 g/day (n = 216); 12 weeks; large VLDL (>60 nm)
[7] = IPE 4 g/day (n = 216); 12 weeks; medium HDL (8.2-9.4 nm)
[8] = IPE 4 g/day (n = 216); 12 weeks; medium VLDL (42-60 nm)
[9] = IPE 4 g/day (n = 216); 12 weeks; small HDL (7.3-8.2 nm)
[10] = IPE 4 g/day (n = 216); 12 weeks; small LDL (18.0-20.5 nm)
[11] = IPE 4 g/day (n = 216); 12 weeks; small VLDL (29-42 nm)
[12] = IPE 4 g/day vs placebo; 12 weeks; Hodges-Lehmann median

With `CC/C=C\C/C=C\C/C=C\C/C=C\C/C=C\CCCC(=O)OCC` [AMR101, ethyl eicosapentaenoate] the “Total VLDL particle concentration, End of Treatment (median)” value (“Total VLDL particle concentration, End” below) (IPE 2 g/day (n = 222), 12 weeks) was 122.4 nmol/L, the “IDL particle concentration, Change from Baseline % (median)” value [1] was 23.7% and the “IDL particle concentration, End of Treatment (median)” value [1] was 63.0 nmol/L. For the same compound, the “Large HDL particle concentration, Change from Baseline % (median)” value [1] was −21.6%, the “Large HDL particle concentration, End of Treatment (median)” value [1] was 1.9 µmol/L and the “Large LDL particle concentration, Change from Baseline % (median)” value [1] was 55.2%. For the same compound, the “Large LDL particle concentration, End of Treatment (median)” value [1] was 172.5 nmol/L, the “Large VLDL particle concentration, Change from Baseline % (median)” value [1] was −41.9% and the Large VLDL particle concentration, End of Treatment (median) [1] was 7.7 nM. The “Medium HDL particle concentration, Change from Baseline % (median)” value [1] was 4.2%, the “Medium HDL particle concentration, End of Treatment (median)” value [1] was 6.9 µmol/L and the “Medium VLDL particle concentration, Change from Baseline % (median)” value [1] was −6.9%. The “Medium VLDL particle concentration, End of Treatment (median)” value [1] was 49.7 nmol/L, the “Small HDL particle concentration, Change from Baseline % (median)” value [1] was −3.9% and the “Small HDL particle concentration, End of Treatment (median)” value [1] was 23.1 µmol/L. For the same compound, the “Small LDL particle concentration, Change from Baseline % (median)” value [1] was −1.1%, the “Small LDL particle concentration, End of Treatment (median)” value [1] was 902.5 nmol/L and the “Small VLDL particle concentration, Change from Baseline % (median)” value [1] was 8.3%. For the same compound, the “Small VLDL particle concentration, End of Treatment (median)” value [1] was 46.8 nmol/L, the “Total HDL particle concentration, Change from Baseline % (median)” value [1] was −4.0% and the “Total HDL particle concentration, End of Treatment (median)” value [1] was 32.6 µmol/L. The “Total LDL particle concentration, Change from Baseline % (median)” value [1] was 3.8%, the “Total LDL particle concentration, End of Treatment (median)” value [1] was 1191 nmol/L and the “Total VLDL particle concentration, Change from Baseline % (median)” value [1] was −2.5%. The “Total VLDL particle concentration, End” value [1] was 110.0 nmol/L, the “Total HDL particle concentration, Change from Baseline % (median)” value [2] was −4.0% and the “Total HDL particle concentration, End of Treatment (median)” value [2] was 32.6 μmon/L. The “Total LDL particle concentration, Change from Baseline % (median)” value [2] was 3.8%, the “Total LDL particle concentration, End of Treatment (median)” value [2] was 1191 nmol/L and the “Total VLDL particle concentration, Change from Baseline % (median)” value [2] was −2.5%. The “Total VLDL particle concentration, End” value [2] was 110.0 nmol/L, the “IDL particle concentration, Change from Baseline % (median)” value [3] was 23.7% and the “IDL particle concentration, End of Treatment (median)” value [3] was 63.0 nmol/L. The “Large HDL particle concentration, Change from Baseline % (median)” value [4] was −21.6%, the “Large HDL particle concentration, End of Treatment (median)” value [4] was 1.9 μmon and the “Large LDL particle concentration, Change from Baseline % (median)” value [5] was 55.2%. The “Large LDL particle concentration, End of Treatment (median)” value [5] was 172.5 nmol/L, the “Large VLDL particle concentration, Change from Baseline % (median)” value [6] was −41.9% and the “Large VLDL particle concentration, End of Treatment (median)” value [6] was 7.7 nM. The “Medium HDL particle concentration, Change from Baseline % (median)” value [7] was 4.2%, the “Medium HDL particle concentration, End of Treatment (median)” value [7] was 6.9 μmon/L and the “Medium VLDL particle concentration, Change from Baseline % (median)” value [8] was −6.9%. For the same compound, the “Medium VLDL particle concentration, End of Treatment (median)” value [8] was 49.7 nmol/L, the “Small HDL particle concentration, Change from Baseline % (median)” value [9] was −3.9% and the “Small HDL particle concentration, End of Treatment (median)” value [9] was 23.1 μmon/L. For the same compound, the “Small LDL particle concentration, Change from Baseline % (median)” value [10] was −1.1%, the “Small LDL particle concentration, End of Treatment (median)” value [10] was 902.5 nmol/L and the “Small VLDL particle concentration, Change from Baseline % (median)” value [11] was 8.3%. For the same compound, the “Small VLDL particle concentration, End of Treatment (median)” value [11] was 46.8 nmol/L, the “Total HDL particle concentration, Median Change From Baseline IPE 4 g/day vs Placebo, %” value [12] was −7.4% and the “Total LDL particle concentration, Median Change From Baseline IPE 4 g/day vs Placebo, %” value [12] was −7.7%. For the same compound, the “Total VLDL particle concentration, Median Change From Baseline IPE 4 g/day vs Placebo, %” value [12] was −12.2%, the “IDL particle concentration, Median Change From Baseline IPE 4 g/day vs Placebo, %” value (IPE 4 g/day vs placebo; 12 weeks; Hodges-Lehmann median; IDL (23-29 nm)) was 10.0% and the “Large HDL particle concentration, Median Change From Baseline IPE 4 g/day vs Placebo, %” value (IPE 4 g/day vs placebo; 12 weeks; Hodges-Lehmann median; large HDL (9.4-14.0 nm)) was −31.0%. The “Large LDL particle concentration, Median Change From Baseline IPE 4 g/day vs Placebo, %” value (IPE 4 g/day vs placebo; 12 weeks; Hodges-Lehmann median; large LDL (20.5-23.0 nm)) was 34.2%, the “Large VLDL particle concentration, Median Change From Baseline IPE 4 g/day vs Placebo, %” value (IPE 4 g/day vs placebo; 12 weeks; Hodges-Lehmann median; large VLDL (>60 nm)) was −46.4% and the “Medium HDL particle concentration, Median Change From Baseline IPE 4 g/day vs Placebo, %” value (IPE 4 g/day vs placebo; 12 weeks; Hodges-Lehmann median; medium HDL (8.2-9.4 nm)) was −6.5%. The “Medium VLDL particle concentration, Median Change From Baseline IPE 4 g/day vs Placebo, %” value (IPE 4 g/day vs placebo; 12 weeks; Hodges-Lehmann median; medium VLDL (42-60 nm)) was −12.1%, the “Small HDL particle concentration, Median Change From Baseline IPE 4 g/day vs Placebo, %” value (IPE 4 g/day vs placebo; 12 weeks; Hodges-Lehmann median; small HDL (7.3-8.2 nm)) was −2.8% and the “Small LDL particle concentration, Median Change From Baseline IPE 4 g/day vs Placebo, %” value (IPE 4 g/day vs placebo; 12 weeks; Hodges-Lehmann median; small LDL (18.0-20.5 nm)) was −13.5%. For the same compound, the “Small VLDL particle concentration, Median Change From Baseline IPE 4 g/day vs Placebo, %” value (IPE 4 g/day vs placebo; 12 weeks; Hodges-Lehmann median; small VLDL (29-42 nm)) was 2.8%.
